≈ marks a conversion by molar mass, not a printed value.
Experiments:
Carbonic anhydrase 4 = target: T1, Carbonic anhydrase 4 (Bos taurus, UniProt Q95323)
T1 sequence (Q95323 whole entry): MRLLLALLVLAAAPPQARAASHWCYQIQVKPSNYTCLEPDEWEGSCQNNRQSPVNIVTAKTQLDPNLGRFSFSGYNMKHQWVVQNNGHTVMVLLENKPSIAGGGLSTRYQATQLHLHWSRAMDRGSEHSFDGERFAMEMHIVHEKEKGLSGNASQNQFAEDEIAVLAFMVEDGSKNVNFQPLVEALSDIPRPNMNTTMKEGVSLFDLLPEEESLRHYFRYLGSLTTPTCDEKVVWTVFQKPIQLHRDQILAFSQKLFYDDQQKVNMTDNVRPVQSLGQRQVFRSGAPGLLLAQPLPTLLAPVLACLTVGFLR
Description: Inhibition of bovine carbonic anhydrase IV (CA4) from bovine lung microsomes

Carbonic anhydrase 1 [1] = target: T2, Carbonic anhydrase 1 (Homo sapiens, UniProt P00915); assay: 99 Tested for inhibition of human (cloned) isozyme Carbonic anhydrase I
Carbonic anhydrase 1 [2] = target: T2, Carbonic anhydrase 1
Description: Inhibition of human recombinant carbonic anhydrase I (CA1)

Oryctolagus cuniculus [3] = organism: Oryctolagus cuniculus
Description: Tested for in vivo IOP-lowering of normotensive albino rabbits after topical administration at the specified interval (90 min) at pH 7

Oryctolagus cuniculus [4] = organism: Oryctolagus cuniculus; remark: listed apart in the source
Description: Tested for in vivo IOP-lowering of normotensive albino rabbits after topical administration at the specified interval (30 min) at pH 7

Oryctolagus cuniculus [5] = organism: Oryctolagus cuniculus; remark: listed apart in the source
Description: Tested for in vivo IOP-lowering of normotensive albino rabbits after topical administration at the specified interval (60 min) at pH 7

Carbonic anhydrase 1 [6] = target: T2, Carbonic anhydrase 1; assay: Tested for inhibition of human (cloned) isozyme Carbonic anhydrase I
Oryctolagus cuniculus [7] = organism: Oryctolagus cuniculus; remark: listed apart in the source
Description: In vitro transcorneal accession rate in rabbit corneal denuded epithelium

[8] = Partition coefficient (logD) (chloroform-buffer); type: physicochemical
Oryctolagus cuniculus [9] = organism: Oryctolagus cuniculus; remark: listed apart in the source
Description: In vitro transcorneal accession rate in rabbit corneal intact epithelium

Oryctolagus cuniculus [10] = organism: Oryctolagus cuniculus; remark: listed apart in the source
Description: Tested for in vivo IOP-lowering of normotensive albino rabbits after topical administration at the specified interval (30 min) at pH 6.5

physchem = settings: pH 7.4 buffer
Description: Tested for solubility in pH 7.4 buffer, at 25 Degree C

Oryctolagus cuniculus [11] = organism: Oryctolagus cuniculus; remark: listed apart in the source
Description: Tested for in vivo IOP-lowering of normotensive albino rabbits after topical administration at the specified interval (60 min) at pH 6.5

Oryctolagus cuniculus [12] = organism: Oryctolagus cuniculus; remark: listed apart in the source
Description: Tested for in vivo IOP-lowering of normotensive albino rabbits after topical administration at the specified interval (90 min) at pH 6.5

Oryctolagus cuniculus [13] = organism: Oryctolagus cuniculus; remark: listed apart in the source
Description: Tested for ex vivo distribution in cornea after topical administration in albino rabbits (Ocular tissue concentration after 1 hr)

[14] = octanol/water
Description: Partition coefficient (logD) (chloroform/buffer)

Oryctolagus cuniculus [15] = organism: Oryctolagus cuniculus; remark: listed apart in the source
Description: Tested for ex vivo distribution in ciliary process after topical administration in albino rabbits (Ocular tissue concentration after 2 hr)

Oryctolagus cuniculus [16] = organism: Oryctolagus cuniculus; remark: listed apart in the source
Description: Tested for ex vivo distribution in aqueous humor after topical administration in albino rabbits (Ocular tissue concentration after 2 hr)

Oryctolagus cuniculus [17] = organism: Oryctolagus cuniculus; remark: listed apart in the source
Description: Tested for ex vivo distribution in cornea after topical administration in albino rabbits (Ocular tissue concentration after 2 hr)

Oryctolagus cuniculus [18] = organism: Oryctolagus cuniculus; remark: listed apart in the source
Description: Tested for ex vivo distribution in ciliary process after topical administration in albino rabbits (Ocular tissue concentration after 1 hr)

[19] = Solubility in pH 7.4 Buffer, at 25 Degree C; type: physicochemical
Oryctolagus cuniculus [20] = organism: Oryctolagus cuniculus; remark: listed apart in the source
Description: Tested for ex vivo distribution in aqueous humor after topical administration in albino rabbits (Ocular tissue concentration after 1 hr)

T2 sequence (P00915 whole entry): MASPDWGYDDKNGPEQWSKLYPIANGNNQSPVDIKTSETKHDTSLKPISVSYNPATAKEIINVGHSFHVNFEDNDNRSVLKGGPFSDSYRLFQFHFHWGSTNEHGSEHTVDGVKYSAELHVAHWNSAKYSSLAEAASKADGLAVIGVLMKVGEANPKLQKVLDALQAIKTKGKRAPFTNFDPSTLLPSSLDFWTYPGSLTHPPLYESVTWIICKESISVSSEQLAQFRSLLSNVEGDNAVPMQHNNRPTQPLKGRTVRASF

Row | SMILES | Ki (Carbonic anhydrase 4) | Ki (Carbonic anhydrase 1 [2]) | further results
1 | NS(=O)(=O)c1ccc(NC(=O)c2c(F)c(F)c(F)c(F)c2F)cc1 | 600 nM |  | Ki (Carbonic anhydrase 1 [1]): 950 nM
2 | Cn1nc(S(N)(=O)=O)s/c1=N/S(=O)(=O)c1ccc(NS(=O)(=O)c2c(F)c(F)c(F)c(F)c2F)cc1 | 9 nM | 21 nM | 
3 | NS(=O)(=O)c1nnc(NC(=O)CCNS(=O)(=O)c2c(F)c(F)c(F)c(F)c2F)s1 | 9 nM | 200 nM | Delta IOP (Oryctolagus cuniculus [3]): 6.1 mmHg; Delta IOP (Oryctolagus cuniculus [4]): 4 mmHg; Delta IOP (Oryctolagus cuniculus [5]): 7.5 mmHg
4 | NS(=O)(=O)c1nc2ccc(NS(=O)(=O)c3c(F)c(F)c(F)c(F)c3F)cc2s1 | 5 nM | 41 nM | Delta IOP (Oryctolagus cuniculus [3]): 6.6 mmHg; Delta IOP (Oryctolagus cuniculus [4]): 3 mmHg; Delta IOP (Oryctolagus cuniculus [5]): 8 mmHg
5 | NS(=O)(=O)c1ccccc1NS(=O)(=O)c1c(F)c(F)c(F)c(F)c1F | 680 nM | 1390 nM | 
6 | NS(=O)(=O)c1ccc(CCOS(=O)(=O)C(F)(F)F)cc1 | 45000 nM | 80000 nM | 
7 | NS(=O)(=O)c1ccccc1NC(=O)c1c(F)c(F)c(F)c(F)c1F | 810 nM |  | Ki (Carbonic anhydrase 1 [6]): 1560 nM
8 | Cn1nc(S(N)(=O)=O)sc1=NS(=O)(=O)C(F)(F)F | 32 nM | 2000 nM | Kin (Oryctolagus cuniculus [7]): 4800 h⁻¹; logD [8]: 1.012; Kin (Oryctolagus cuniculus [9]): 3100 h⁻¹; Delta IOP (Oryctolagus cuniculus [10]): 3.2 mmHg; solubility (physchem): 69 mM (≈ 22.5 mg/mL); Delta IOP (Oryctolagus cuniculus [11]): 7.3 mmHg; Delta IOP (Oryctolagus cuniculus [12]): 4.9 mmHg
9 | NS(=O)(=O)c1nnc(NC(=O)CCNS(=O)(=O)C(F)(F)F)s1 | 40 nM | 3000 nM | 
10 | NS(=O)(=O)c1ccc(NS(=O)(=O)C(F)(F)F)c(I)c1 | 49000 nM | 210000 nM | 
11 | NS(=O)(=O)c1nnc(NS(=O)(=O)C(F)(F)C(F)(F)C(F)(F)C(F)(F)F)s1 | 9 nM | 360 nM | Kin (Oryctolagus cuniculus [7]): 7000 h⁻¹; logD [8]: 1.525; Kin (Oryctolagus cuniculus [9]): 4300 h⁻¹; Delta IOP (Oryctolagus cuniculus [3]): 5.6 mmHg; solubility (physchem): 50 mM (≈ 23.1 mg/mL); Delta IOP (Oryctolagus cuniculus [4]): 2.8 mmHg; Delta IOP (Oryctolagus cuniculus [5]): 8.5 mmHg
12 | NS(=O)(=O)c1nnc(NC(=O)c2c(F)c(F)c(F)c(F)c2F)s1 | 10 nM | 250 nM | Kin (Oryctolagus cuniculus [7]): 10100 h⁻¹; logD [8]: 2.245; Kin (Oryctolagus cuniculus [9]): 4800 h⁻¹; Delta IOP (Oryctolagus cuniculus [3]): 6.5 mmHg; solubility (physchem): 43 mM (≈ 16.1 mg/mL); Delta IOP (Oryctolagus cuniculus [4]): 2.2 mmHg; Delta IOP (Oryctolagus cuniculus [5]): 7.3 mmHg
13 | NS(=O)(=O)c1ccc(NS(=O)(=O)c2c(F)c(F)c(F)c(F)c2F)cc1 | 410 nM | 890 nM | 
14 | NS(=O)(=O)c1cccc(NS(=O)(=O)c2ccc(NS(=O)(=O)c3c(F)c(F)c(F)c(F)c3F)cc2)c1 | 16 nM | 150 nM | 
15 | NS(=O)(=O)c1nnc(NS(=O)(=O)c2c(F)c(F)c(F)c(F)c2F)s1 | 6 nM | 210 nM | Drug concentration (Oryctolagus cuniculus [13]): 176 µM; logD [14]: 2.113; Drug concentration (Oryctolagus cuniculus [15]): 12.5 µM; Kin (Oryctolagus cuniculus [7]): 8700 h⁻¹; Kin (Oryctolagus cuniculus [9]): 4500 h⁻¹; Drug concentration (Oryctolagus cuniculus [16]): 42 µM; Drug concentration (Oryctolagus cuniculus [17]): 69 µM; Drug concentration (Oryctolagus cuniculus [18]): 45 µM; solubility [19]: 62 mM (≈ 25.4 mg/mL); Drug concentration (Oryctolagus cuniculus [20]): 324 µM
16 | NS(=O)(=O)c1ccc(NC(=O)c2c(F)c(F)c(F)c(F)c2F)c(F)c1 | 185 nM | 760 nM | 
17 | CC(=O)/N=c1/sc(S(N)(=O)=O)nn1C [METHAZOLAMIDE] |  |  | logD [14]: 0.06; Kin (Oryctolagus cuniculus [7]): 13000 h⁻¹; Kin (Oryctolagus cuniculus [9]): 1900 h⁻¹

The next lines start with results.

Row | Ki (Carbonic anhydrase 4) | Ki (Carbonic anhydrase 1 [2]) | SMILES | further results
18 | 900 nM | 22000 nM | NS(=O)(=O)c1ccccc1NS(=O)(=O)C(F)(F)C(F)(F)C(F)(F)C(F)(F)F | 
19 | 29000 nM | 100000 nM | NS(=O)(=O)c1ccc(NS(=O)(=O)C(F)(F)F)c(F)c1 | 
20 | 11 nM | 65 nM | NS(=O)(=O)c1nc2ccc(OCCOC(=O)c3c(F)c(F)c(F)c(F)c3F)cc2s1 | 
21 | 12500 nM | 2550 nM | NS(=O)(=O)c1ccc(NS(=O)(=O)C(F)(F)C(F)(F)C(F)(F)C(F)(F)C(F)(F)C(F)(F)C(F)(F)C(F)(F)F)c(Br)c1 | 
22 | 95300 nM | 188000 nM | NS(=O)(=O)c1cccc(NS(=O)(=O)C(F)(F)F)c1 | 
23 | 9 nM | 45 nM | NS(=O)(=O)c1nc2ccc(NC(=O)C(F)(F)C(F)(F)C(F)(F)C(F)(F)C(F)(F)C(F)(F)C(F)(F)C(F)(F)F)cc2s1 | 
24 | 33 nM | 3600 nM | NS(=O)(=O)c1cccc(NS(=O)(=O)c2ccc(NS(=O)(=O)C(F)(F)C(F)(F)C(F)(F)C(F)(F)C(F)(F)C(F)(F)C(F)(F)C(F)(F)F)cc2)c1 | 
25 | 34 nM | 4500 nM | NS(=O)(=O)c1ccc(Nc2ccnc(NS(=O)(=O)C(F)(F)C(F)(F)C(F)(F)C(F)(F)C(F)(F)C(F)(F)C(F)(F)C(F)(F)F)n2)cc1 | 
26 | 7 nM | 18 nM | NS(=O)(=O)c1nc2ccc(OCCOS(=O)(=O)c3c(F)c(F)c(F)c(F)c3F)cc2s1 | 
27 | 705 nM | 1000 nM | NS(=O)(=O)c1ccc(CNS(=O)(=O)C(F)(F)C(F)(F)C(F)(F)C(F)(F)C(F)(F)C(F)(F)C(F)(F)C(F)(F)F)cc1 | 
28 | 33 nM | 1000 nM | Cn1nc(S(N)(=O)=O)s/c1=N/S(=O)(=O)c1ccc(NS(=O)(=O)C(F)(F)F)cc1 | 
29 | 850 nM | 1400 nM | NS(=O)(=O)c1ccc(NC(=O)C(F)(F)C(F)(F)C(F)(F)C(F)(F)C(F)(F)C(F)(F)C(F)(F)C(F)(F)F)cc1 | 
30 | 15000 nM | 3400 nM | NS(=O)(=O)c1ccc(NS(=O)(=O)C(F)(F)C(F)(F)C(F)(F)C(F)(F)C(F)(F)C(F)(F)C(F)(F)C(F)(F)F)c(I)c1 | 
31 | 650 nM |  | NS(=O)(=O)c1cccc(NC(=O)c2c(F)c(F)c(F)c(F)c2F)c1 | Ki (Carbonic anhydrase 1 [6]): 1400 nM
32 | 5 nM | 17 nM | NS(=O)(=O)c1nc2ccc(OCCOS(=O)(=O)C(F)(F)C(F)(F)C(F)(F)C(F)(F)C(F)(F)C(F)(F)C(F)(F)C(F)(F)F)cc2s1 | 
33 | 21 nM | 800 nM | NS(=O)(=O)c1nnc(NS(=O)(=O)c2ccc(NS(=O)(=O)C(F)(F)C(F)(F)C(F)(F)C(F)(F)C(F)(F)C(F)(F)C(F)(F)C(F)(F)F)cc2)s1 | Kin (Oryctolagus cuniculus [7]): 7.5 h⁻¹; logD [8]: 1.689; Kin (Oryctolagus cuniculus [9]): 4.1 h⁻¹
34 | 13 nM | 600 nM | NS(=O)(=O)c1nnc(NS(=O)(=O)c2ccc(NC(=O)C(F)(F)C(F)(F)C(F)(F)C(F)(F)C(F)(F)C(F)(F)C(F)(F)C(F)(F)F)cc2)s1 | Kin (Oryctolagus cuniculus [7]): 8 h⁻¹; logD [8]: 1.436; Kin (Oryctolagus cuniculus [9]): 3.2 h⁻¹
35 | 10 nM | 55 nM | NS(=O)(=O)c1nc2ccc(OS(=O)(=O)C(F)(F)F)cc2s1 | 
36 | 10600 nM | 24500 nM | NS(=O)(=O)c1ccc(COS(=O)(=O)C(F)(F)C(F)(F)C(F)(F)C(F)(F)F)cc1 | 
37 | 470 nM | 965 nM | NS(=O)(=O)c1ccc(CCNS(=O)(=O)C(F)(F)C(F)(F)C(F)(F)C(F)(F)C(F)(F)C(F)(F)C(F)(F)C(F)(F)F)cc1 | 
38 | 9200 nM | 20900 nM | NS(=O)(=O)c1ccc(CCOS(=O)(=O)C(F)(F)C(F)(F)C(F)(F)C(F)(F)F)cc1 | 
